Results: patent US9890407B2, “Method for synthesizing cellulose in vitro” (University of Virginia Patent Foundation, priority 2013, dated 2018)

Biological target: T1, Rhodobacter sphaeroides BcsA-B complex (cellulose synthase), wild type, BcsA SEQ ID NO: 1, BcsB SEQ ID NO: 3 (Cereibacter sphaeroides, UniProt Q3J125)
T1 construct: pETDuet, E. coli C43; purified, reconstituted in nanodiscs, proteoliposomes or detergent
T1 sequence (Q3J125 1-788): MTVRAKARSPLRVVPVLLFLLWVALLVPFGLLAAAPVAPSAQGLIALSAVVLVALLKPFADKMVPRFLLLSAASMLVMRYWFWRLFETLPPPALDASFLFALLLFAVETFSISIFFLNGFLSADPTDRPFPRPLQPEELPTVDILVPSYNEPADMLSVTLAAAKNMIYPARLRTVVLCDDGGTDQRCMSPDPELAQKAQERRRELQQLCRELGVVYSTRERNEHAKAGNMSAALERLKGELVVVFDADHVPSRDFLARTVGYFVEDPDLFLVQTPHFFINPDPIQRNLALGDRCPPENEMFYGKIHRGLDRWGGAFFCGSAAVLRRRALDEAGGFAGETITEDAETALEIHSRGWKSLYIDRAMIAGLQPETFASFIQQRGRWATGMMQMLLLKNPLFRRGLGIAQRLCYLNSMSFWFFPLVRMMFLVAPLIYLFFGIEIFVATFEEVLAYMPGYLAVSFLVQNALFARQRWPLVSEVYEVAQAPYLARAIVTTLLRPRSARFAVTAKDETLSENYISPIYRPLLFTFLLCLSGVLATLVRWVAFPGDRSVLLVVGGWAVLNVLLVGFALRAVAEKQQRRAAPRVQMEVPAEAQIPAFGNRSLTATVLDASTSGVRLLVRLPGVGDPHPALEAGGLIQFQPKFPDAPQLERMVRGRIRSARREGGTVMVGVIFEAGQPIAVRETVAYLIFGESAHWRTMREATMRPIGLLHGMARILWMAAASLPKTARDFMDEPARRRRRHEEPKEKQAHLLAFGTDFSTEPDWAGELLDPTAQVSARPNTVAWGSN
T1 sequence (Q3J126 21-725 partner): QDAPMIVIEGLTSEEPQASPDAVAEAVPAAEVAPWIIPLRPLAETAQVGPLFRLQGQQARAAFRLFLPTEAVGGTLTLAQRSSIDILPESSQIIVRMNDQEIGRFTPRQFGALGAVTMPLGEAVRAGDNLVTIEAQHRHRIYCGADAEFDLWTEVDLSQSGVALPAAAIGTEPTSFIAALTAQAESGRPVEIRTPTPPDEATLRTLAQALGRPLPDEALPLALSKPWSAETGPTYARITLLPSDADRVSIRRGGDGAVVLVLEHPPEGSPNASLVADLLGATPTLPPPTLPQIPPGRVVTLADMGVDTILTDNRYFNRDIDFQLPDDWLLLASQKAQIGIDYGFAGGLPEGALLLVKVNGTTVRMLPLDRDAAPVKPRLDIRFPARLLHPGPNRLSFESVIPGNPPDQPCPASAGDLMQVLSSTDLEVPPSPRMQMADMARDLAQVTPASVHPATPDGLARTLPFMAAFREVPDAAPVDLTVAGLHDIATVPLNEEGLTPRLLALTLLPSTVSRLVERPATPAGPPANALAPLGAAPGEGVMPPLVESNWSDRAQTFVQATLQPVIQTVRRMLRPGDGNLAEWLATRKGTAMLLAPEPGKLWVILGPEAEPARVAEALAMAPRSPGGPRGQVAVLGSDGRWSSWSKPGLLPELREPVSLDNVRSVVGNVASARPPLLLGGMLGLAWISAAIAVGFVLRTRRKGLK
Assay: Cellulose synthesis sedimentation assay, inhibition by nucleoside diphosphates, PL-reconstituted BcsA-B
Assay type: biochemical
Details: 0.5 mM UDP-Glc; increasing nucleotide concentrations; 60 min, 37° C.
Method: FIG. 4A-4C (also referred to as Example 1, FIG. 4): Product inhibition of cellulose synthase. (FIG. 4A) Enzyme-coupled cellulose synthesis assays were performed as described in FIG. 3 in the absence or presence of 0.1 mg/ml E. coli BesZ. […] Inset: Radioactive sedimentation assay performed with ND-reconstituted BcsA-B synthesizing cellulose in the absence or presence of BcsZ. (FIG. 4B) Inhibition of cellulose synthesis by UDP. Cellulose synthesis sedimentation assays were performed with 1 μM PL-reconstituted BesA-B in the presence of increasing concentrations of the indicated nucleotides and 0.5 mM UDP-Glc for 60 min at 37° C. The obtained product is quantified relative to the polymer formed in the absence of any nucleoside diphosphate. (FIG. 4C) UDP is a competitive inhibitor of cellulose synthase. […] The products are quantified relative to the polymer formed in the absence of UDP and the presence of 5 mM UDP-Glc. […]
Standard cellulose synthase sedimentation assays were performed by incubating 1 μM of cellulose synthase complexes, either in PLs, ND or detergent micelles, in the presence of 30 μM c-di-GMP, 20 mM MgCl2, 5 mM UDP-Glc and 0.25 μCi UDP-[3H]-Glc in AB-buffer lacking glycerol and containing only 0.1 M NaCl. […] Following paper chromatography, the high molecular weight polymer retained at the origin was quantified by scintillation counting. […]

| SMILES | inhibition of cellulose synthesis by nucleoside diphosphates |
| --- | --- |
| Nc1nc2c(ncn2[C@@H]2O[C@H](COP(=O)(O)OP(=O)(O)O)[C@@H](O)[C@H]2O)c(=O)[nH]1 [guanosine-diphosphate] | do not inhibit cellulose synthesis |
| Nc1ncnc2c1ncn2[C@@H]1O[C@H](COP(=O)(O)OP(=O)(O)O)[C@@H](O)[C@H]1O [adenosine-diphosphate] | do not inhibit cellulose synthesis |
